Consider 1 substance from patent US7749976B2, “Isolated PTPMT1 protein which mediates insulin production and uses thereof” (The Regents of the University of California, priority 2005, dated 2010).

Format in all cases: cell-based, rat
Series [1] relates to INS-1 832/13 cells. Briefly: Glucose-stimulated insulin secretion assay. The settings on record: basal (3 mM) and glucose stimulated (15 mM) conditions, out to 120 min. On the procedure: INS-1 832/13 cells (5×10^6 per reaction) were electroporated as above, and split between 4 wells of a 12-well plate. After 72 hours, cells were washed once with low glucose (3 mM) standard assay buffer (SAB: 114 mM NaCl, 4.7 mM KCl, 1.2 mM KH2PO4, 1.16 mM MgSO4, 20 mM HEPES pH 7.2, 25.5 mM NaHCO3, 10 mM CaCl2, 0.2% BSA), and then preincubated for 2 hours in fresh low glucose SAB. After preincubation, 1 mL of low or high (15 mM) glucose SAB was added to each well. At the end of the incubation time, the SAB was removed and saved, and the cells were washed once in PBS, and lysed by freezing and thawing in a Tris-EDTA solution (20 mM Tris pH 7.4, 20 mM EDTA pH 8.0, 10 mM DTT, protease inhibitors). A Bio-Rad protein assay was performed on each lysate sample to standardize the insulin assay results for protein. The ^125I-insulin Coat-A-Count RIA (Diagnostic Products Corp.) was used to assay SAB samples for insulin content.
To test this, INS-1 832/13 cells were again treated with luciferase (control) or PTPMT1 siRNA. Seventy-two hours post siRNA treatment, cells were washed with PBS, and incubated in media containing 3 mM glucose for 2 hrs to normalize insulin release. Fresh media containing either 3 mM (low) or 15 mM (high) glucose media was then added to the cells and insulin secretion analyzed out to 120 min. […]

In series [2] the test system is PTPMT1. In words: Knockdown of PTPMT1 expression (immunoblot). The note with it: Amaxa nucleoporation, INS-1 832/13 cells. On the procedure:
(§1) PTPMT1 expression in INS-1 832/13 cells was knocked down using 200 pmol of Ambion siRNA (sense: 5′-GUCUGUGGAUGACAAAGAAtt-3′ (SEQ ID NO:3), antisense: UUCUUUGUCAUCCACAGACtt-3′ (SEQ ID NO:4)) in an Amaxa nucleoporator with buffer T on program T-20, according to the manufacturer's protocol. Approximately 72 hrs post siRNA treatment, cells were treated as outlined in the text, pelleted and lysed in 2% TCA via sonication and/or vortexing. Precipitates were pelleted at 13,200 rpm for 2 minutes. The supernatant was removed, neutralized with 0.5 M Tris pH 7.4, and analyzed for ATP using Promega's ENLITEN luciferase bioluminescence reagent at an appropriate dilution. All ATP measurements were normalized to protein levels, as measured by the BCA method (Pierce). ADP levels were determined by converting ADP to ATP with pyruvate kinase, remeasuring ATP by the above assay, and subtracting the initial ATP readings, as reported (Gorman et al., 2003).
FIG. 10 illustrates that PTPMT1 is involved in the regulation of mitochondrial ATP production. […] In C whole cell ADP was measured as above.
To simultaneously assess the effect that knockdown of PTPMT1 has on mitochondrial phosphoproteins and PI(5)P levels, its expression was knocked-down in a large quantity of INS-1 832/13 cells using adenovirus-delivered siRNA. […]
A general note: Immunoblotting shows a protein as a band on a membrane.

The subject of series [3] is INS-1 832/13 cells. In words: ATP and ADP assays in siRNA-treated INS-1 832/13 cells. On the procedure: as §1
Given PTPMT1's likely juxtaposition with members of the respiratory chain on the inner mitochondrial membrane, assessment of PTPMT1's endogenous function was carried out by measuring its effect on cellular ATP levels. […] Seventy-two hours post siRNA treatment, cells were washed and incubated in a 3.0 mM glucose medium for 2 hr. Cells were then lysed and ATP levels analyzed using a luciferase based luminometry reaction. Strikingly, knockdown of PTPMT1 expression increased ATP levels by an average of 82% over control cells across three separate experiments (FIG. 10B). […] ATP/ADP ratio (FIG. 10C). […] AMPK serves as a sensor of cellular energy status, becoming dephosphorylated (inactivated) when the cellular AMP:ATP ratio decreases. Consistent with the above data, AMPK is more highly phosphorylated in the control cells following the above incubation in low glucose (FIG. 10D). Thus, knockdown of PTPMT1 results in a true increase in cellular energy status, as opposed to merely a general increase in the cellular adenine pool.

In the case of “PTPMT1 siRNA: Ambion siRNA sense 5′-GUCUGUGGAUGACAAAGAAtt-3′ (SEQ ID NO:3), antisense UUCUUUGUCAUCCACAGACtt-3′ (SEQ ID NO:4) (sense GUCUGUGGAUGACAAAGAATT; antisense UUCUUUGUCAUCCACAGACTT; chemistry not given here)”, in series [1], the “Insulin secretion versus control” value is “increased insulin secretion at nearly all time points”. Also, the “Endogenous PTPMT1 expression” value in series [2] is recorded as “highly effective at ablating endogenous PTPMT1 expression”. In series [3] (72 h post siRNA, 2 hr in 3.0 mM glucose, average of three experiments), the “Increase in ATP levels over control cells” value came out at 82%. Besides, in series [3] (72 h post siRNA, low glucose 2 h), the “ADP levels versus control” value is given as “Very little, if any, difference”. Besides, in series [3] (same buffer containing 10 μM FCCP), the “ATP levels versus control with FCCP” value is “no difference in ATP levels”.
